# Test results as given in US20170290882A1, “Specific Combined Therapy of Malignant Tumors with a Cytostatic and Its Modifier” (priority 2015, published 2017).
# Experiments:
# [1] = during intravenous injection; cited from earlier work
# [2] = test system: P388 lymphoplastic leukemia; assay: Combined therapy different cytostatics+GMDP-A in the P388 lymphoplastic leukemia model; type: in vivo, BDF1 mice; settings: single cytostatic alone (DDP 1/2, gemzar 1/2, CP 1/4 therapeutic dose), start 24 hours after inoculation
# Method: Anti-tumor efficiency of the claimed combined therapy and comparative monotherapy using only a cytostatic or only GMDP-A modifier was assessed by the criteria commonly used in experimental oncology: tumor volume (TV), tumor growth inhibition (TGI), increase of the animal life time (ILT), tumor metastasis frequency (MF), metastasis inhibition rate (MI).
# Comparative study was carried out of the GMDP-A modifying effect relatively different cytostatic agents: cisplatin (DDP), gemzar and cyclophosphan (CP), in the P388 lymphoplastic leukemia model. Efficiency of combined therapy with cytostatics and GMDP-A was assessed while using DDP in amount of ½ therapeutic dose, gemzar as ½ therapeutic dose and CP in amount of ¼ therapeutic dose. Treatment was started on the early term of tumor growth (in 24 hours after inoculation); GMDP-A was injected during 21 days in a daily dose of 3.75 mg/kg. The drug was administered subcutaneously in 2 areas: in the tumor growth area (over the tumor) or in symmetry area (on the opposite side of the tumor node).
# The following commercially-available drugs were used: Cyclophosphan Endoxan® trade mark, manufactured by Baxter Oncology GmbH, Germany; Cisplatin, Cisplatin Teva trade mark, manufacturer is Teva Pharmaceutical Industries Ltd., Israel (fabricated at Pharmachemie B. V., the Netherlands); Gemcitabine, Gemcitar trade mark, manufactured by CJSC Biocad, Russia.
# 1 mg/ml GMDP-A solution for subcutaneous injection was prepared by dissolving GMDP-A lyophilisate in water for injections.
# [3] = test system: P388 lymphoplastic leukemia; assay: Combined therapy DDP+GMDP-A in the P388 lymphoplastic leukemia model; type: in vivo, mice BDF1; settings: single DDP 4 mg/kg i.v. alone
# Method: (§1) They were transplanted on the right-side surface of the animal body.
# (§2) The animals with tumors were treated in test groups at the early (24 hours after tumor inoculation) and late (5 days after tumor inoculation) terms of the tumor growth using a single cytostatic injection intravenously in a dose equal to ½ or ¼ of therapeutic one and various schedules for GMDP-A injection: • Primary subcutaneous injection of GMDP-A modifier in a single dose 3.75 mg/kg; • Repeated protracted subcutaneous administration of GMDP-A modifier according to different schedules: 4-fold, 9-fold and 20-fold, once per day, in a single dose of 3.75 mg/kg (course dose is 18.75 mg/kg, 37.5 mg/kg and 78.75 mg/kg, correspondingly). Dosage frequency depends upon the model (histological form of transplanted tumor).
# (§3) To identify efficiency of the claimed combined therapy, independent medication was carried out as a control after tumor inoculation using one component of binary therapy-cytostatic drug or a modifier. Cytostatic was injected intravenously in amount of ½ or ¼ of therapeutic dose once after 24 hours or 5 days after tumor inoculation; GMDP-A modifier was administered subcutaneously in a single dose of 3.75 mg/kg 5-fold from the 1st day to the 5th day or from the 5th day to the 9th day, or 10-fold from the 1st day to the 10th day or from the 5th day to the 14th day, or 21-fold from the 1st day to the 21st day after tumor inoculation.
# Efficiency of the combined therapy—chemotherapy with cisplatin cytostatic (DDP) and bioherapy with GMDP-A was assessed on P388 lymphoplastic leukemia model inoculated to mice BDF1, females, subcutaneously on the right-side body surface.
# GMDP-A was administered to mice subcutaneously as a single dose of 3.75 mg/kg every day with different schedules: • Five-fold (total dose is 18.75 mg/kg) on the 1st day to the 5th day or on the 5th day to the 9th day after tumor inoculation; • Ten-fold (total dose is 37.5 mg/kg) on the 1st day to the 10th day or on the 5th day to the 14th day after tumor inoculation; • Twenty-one-fold (total dose is 78.75 mg/kg) on the 1st day to the 21st st day after tumor inoculation.
# DDP (Cisplatin, Cisplatin Teva trade mark, manufacturer is Teva Pharmaceutical Industries Ltd., Israel, fabricated at Pharmachemie B.V., the Netherlands) was administered intravenously as a single dose ma 4 mg/kg (½ of therapeutic dose).
# [4] = test system: B16 melanoma; assay: Binary therapy DDP+GMDP-A in the B16 melanoma model; type: in vivo, BDF1 mice; settings: single DDP 4 mg/kg i.v. alone
# Method: as §1, §2, §3
# Efficiency of the combined therapy—chemotherapy with DDP cytostatic and biotherapy with GMDP-A was assessed on B16 melanoma model inoculated to BDF1 mice, females, subcutaneously on the right-side body surface.
# GMDP-A was administered to mice subcutaneously as a single dose of 3.75 mg/kg every day with different schedules:
# Five-fold (total dose is 18.75 mg/kg) on the 1st day to the 5th day or on the 5th day to the 9th day after tumor inoculation;
# Ten-fold (total dose is 37.5 mg/kg) on the 1st day to the 10th day or on the 5th day to the 14th day after tumor inoculation;
# DDP (Cisplatin, Cisplatin Teva trade mark, manufacturer is Teva Pharmaceutical Industries Ltd., Israel, fabricated at Pharmachemie B.V., the Netherlands) was administered intravenously as a single dose of 4 mg/kg (½ of therapeutic dose).
# [5] = test system: P388 lymphoplastic leukemia; assay: GMDP-A lyophilisate versus final pharmaceutical form, alone and with DDP, in the P388 lymphoplastic leukemia model; type: in vivo, BDF1 mice; settings: if given, 21-fold, single
# Method: Therapeutic efficiency of GMDP-A lyophilisate and the GMDP-A final pharmaceutical form was compared in the model of P338 lymphoplastic leukemia solid version at the early treatment start (in 24 hour after subcutaneous transplantation of tumor material) as GMDP-A monotherapy (lyophilisate or the final pharmaceutical form) as well as combined administration with DDP.
# As a final pharmaceutical form, “GMDP-A, 1 mg/ml solution for subcutaneous injection” sterile solutions were used. They contained GMDP-A and the following auxiliary substances and carriers in pharmaceutically-accepted amounts: sorbitol, disodium edeteate, propylene glycol, water.
smiles,measurement,setting,value
"CC(=O)N[C@H]1[C@H](O[C@H]2[C@H](O[C@H](C)C(=O)N[C@@H](C)C(=O)N[C@H](CCC(=O)O)C(N)=O)[C@@H](NC(C)=O)C(O)O[C@@H]2CO)O[C@H](CO)[C@@H](O)[C@@H]1O (stereo partly drawn) [GMDP, N-acetyl-D-glucosaminyl-β-(1-4)-N-acetylmuramoyl-L-alanyl-D-isoglutamine]",Pyrogenicity,[1],pyrogenic effect
"O=P1(N(CCCl)CCCl)NCCCO1 (stereo not drawn) [CP, cyclophosphan]",tumor growth inhibition (TGI),[2]; day 7,89%
same,tumor growth inhibition (TGI),[2]; day 12,86%
same,tumor growth inhibition (TGI),[2]; day 14,85%
same,tumor growth inhibition (TGI),[2]; day 19,76%
same,tumor growth inhibition (TGI),[2]; day 21,77%
same,Average life time,[2],31 ± 2 days
same,ILT (increase of the animal life time),[2],30%
same,Metastasis MF (tumor metastasis frequency),[2],100%
same,Metastasis MI (metastasis inhibition rate),[2],89%
"Nc1ccn([C@@H]2O[C@H](CO)[C@@H](O)C2(F)F)c(=O)n1 [Gemzar, Gemcitabine]",tumor growth inhibition (TGI),[2]; day 7,60%
same,tumor growth inhibition (TGI),[2]; day 12,37%
same,tumor growth inhibition (TGI),[2]; day 14,34%
same,tumor growth inhibition (TGI),[2]; day 19,45%
same,tumor growth inhibition (TGI),[2]; day 21,44%
same,Average life time,[2],29 ± 2 days
same,ILT (increase of the animal life time),[2],21%
same,Metastasis MF (tumor metastasis frequency),[2],100%
same,Metastasis MI (metastasis inhibition rate),[2],69%
"N.N.[Cl][Pt][Cl] [DDP, cisplatin, reference compound]",tumor growth inhibition (TGI),[2]; day 7,27%
same,tumor growth inhibition (TGI),[2]; day 12,36%
same,tumor growth inhibition (TGI),[2]; day 14,43%
same,tumor growth inhibition (TGI),[2]; day 19,33%
same,tumor growth inhibition (TGI),[2]; day 21,22%
same,Average life time,[2],26 ± 1 days
same,ILT (increase of the animal life time),[2],9%
same,Metastasis MF (tumor metastasis frequency),[2],100%
same,Metastasis MI (metastasis inhibition rate),[2],40%
same,Tumor volume,"[3]; day 7, early start (1st day)",37.9 ± 4.5 mm^3
same,tumor growth inhibition (TGI),"[3]; day 7, early start (1st day)",64%
same,Tumor volume,"[3]; day 7, late start (5th day)",75.4 ± 4.8 mm^3
same,tumor growth inhibition (TGI),"[3]; day 7, late start (5th day)",28%
same,Tumor volume,"[3]; day 9, early start (1st day)",67.5 ± 7.7 mm^3
same,tumor growth inhibition (TGI),"[3]; day 9, early start (1st day)",53%
same,Tumor volume,"[3]; day 9, late start (5th day)",65.7 ± 6.2 mm^3
same,tumor growth inhibition (TGI),"[3]; day 9, late start (5th day)",54%
same,Tumor volume,"[3]; day 12, early start (1st day)",76.7 ± 7.7 mm^3
same,tumor growth inhibition (TGI),"[3]; day 12, early start (1st day)",61%
same,Tumor volume,"[3]; day 12, late start (5th day)",95.9 ± 8.4 mm^3
same,tumor growth inhibition (TGI),"[3]; day 12, late start (5th day)",51%
same,Tumor volume,"[3]; day 14, early start (1st day)",155.3 ± 12 mm^3
same,tumor growth inhibition (TGI),"[3]; day 14, early start (1st day)",42%
same,Tumor volume,"[3]; day 14, late start (5th day)",149.3 ± 11.6 mm^3
same,tumor growth inhibition (TGI),"[3]; day 14, late start (5th day)",44%
same,Tumor volume,"[3]; day 19, early start (1st day)",374.1 ± 28.4 mm^3
same,tumor growth inhibition (TGI),"[3]; day 19, early start (1st day)",41%
same,Tumor volume,"[3]; day 19, late start (5th day)",448.9 ± 33.2 mm^3
same,tumor growth inhibition (TGI),"[3]; day 19, late start (5th day)",30%
same,Average life time,[3]; early start (1st day),23 ± 0.7 days
same,ILT (increase of the animal life time),[3]; early start (1st day),−4%
same,Metastasis MF (tumor metastasis frequency),[3]; early start (1st day),100%
same,Metastasis MI (metastasis inhibition rate),[3]; early start (1st day),49%
same,Average life time,[3]; late start (5th day),24 ± 0.6 days
same,ILT (increase of the animal life time),[3]; late start (5th day),0%
same,Metastasis MF (tumor metastasis frequency),[3]; late start (5th day),100%
same,Metastasis MI (metastasis inhibition rate),[3]; late start (5th day),50%
same,Tumor volume,"[4]; day 7, early start (1st day)",3 ± 3 mm^3
same,tumor growth inhibition (TGI),"[4]; day 7, early start (1st day)",94%
same,Tumor volume,"[4]; day 9, early start (1st day)",13 ± 5 mm^3
same,tumor growth inhibition (TGI),"[4]; day 9, early start (1st day)",89%
same,Tumor volume,"[4]; day 9, late start (5th day)",51 ± 8 mm^3
same,tumor growth inhibition (TGI),"[4]; day 9, late start (5th day)",56%
same,Tumor volume,"[4]; day 12, early start (1st day)",54 ± 18 mm^3
same,tumor growth inhibition (TGI),"[4]; day 12, early start (1st day)",80%
same,Tumor volume,"[4]; day 12, late start (5th day)",163 ± 22 mm^3
same,tumor growth inhibition (TGI),"[4]; day 12, late start (5th day)",38%
same,Tumor volume,"[4]; day 14, early start (1st day)",117 ± 20 mm^3
same,tumor growth inhibition (TGI),"[4]; day 14, early start (1st day)",69%
same,Tumor volume,"[4]; day 14, late start (5th day)",270 ± 45 mm^3
same,tumor growth inhibition (TGI),"[4]; day 14, late start (5th day)",23%
same,Tumor volume,"[4]; day 16, early start (1st day)",232 ± 36 mm^3
same,tumor growth inhibition (TGI),"[4]; day 16, early start (1st day)",58%
same,Tumor volume,"[4]; day 16, late start (5th day)",424 ± 43 mm^3
same,tumor growth inhibition (TGI),"[4]; day 16, late start (5th day)",24%
same,Tumor volume,"[4]; day 19, early start (1st day)",653 ± 176 mm^3
same,tumor growth inhibition (TGI),"[4]; day 19, early start (1st day)",39%
same,Tumor volume,"[4]; day 19, late start (5th day)",1010 ± 173 mm^3
same,tumor growth inhibition (TGI),"[4]; day 19, late start (5th day)",5%
same,Average life time,[4]; early start (1st day),28 ± 3 days
same,ILT (increase of the animal life time),[4]; early start (1st day),33%
same,Metastasis MF (tumor metastasis frequency),[4]; early start (1st day),20%
same,Metastasis MI (metastasis inhibition rate),[4]; early start (1st day),99%
same,Average life time,[4]; late start (5th day),25 ± 3 days
same,ILT (increase of the animal life time),[4]; late start (5th day),19%
same,Metastasis MF (tumor metastasis frequency),[4]; late start (5th day),100%
same,Metastasis MI (metastasis inhibition rate),[4]; late start (5th day),11%
same,Tumor volume,"[5]; day 8, early start (24 hour)",29.4 ± 5.3 mm^3
same,tumor growth inhibition (TGI),"[5]; day 8, early start (24 hour)",65%
same,Tumor volume,"[5]; day 12, early start (24 hour)",53.6 ± 5.4 mm^3
same,tumor growth inhibition (TGI),"[5]; day 12, early start (24 hour)",67%
same,Tumor volume,"[5]; day 16, early start (24 hour)",96.3 ± 5.1 mm^3
same,tumor growth inhibition (TGI),"[5]; day 16, early start (24 hour)",73%
same,Tumor volume,"[5]; day 20, early start (24 hour)",440 ± 26.7 mm^3
same,tumor growth inhibition (TGI),"[5]; day 20, early start (24 hour)",58%
same,Average life time,[5]; early start (24 hour),30.0 ± 2.8 days
same,ILT (increase of the animal life time),[5]; early start (24 hour),22%
same,"Metastasis (upper, unnamed value in the Metastasis inhibition index column)",[5]; early start (24 hour),172.0 ± 14.4
same,Metastasis MF (tumor metastasis frequency),[5]; early start (24 hour),100%
same,Metastasis inhibition index,[5]; early start (24 hour),32%
